Target: recombinant EsigPBP3
Assay: fluorescence competitive binding assay (FCBA) with 1-NPN probe
Set-up: species or system Endoclita signifer
Conditions: for IC50: displacement of 1-NPN, 20 mM Tris-HCl pH 7.4, ligands 2-24 µM; for IC50 / Ki: 2 µM EsigPBP3 and 2 µM 1-NPN; for Ki: from IC50 by Ki = [IC50]/(1 + [1-NPN]/K1-NPN)
Procedure: Fluorescence competition assays were conducted using 1-NPN ([…]) as a selective fluorescence probe to measure the affinity of ligands for binding to the recombinant EsigPBP3 [49]. […] The emission wavelength range was set from 380 nm to 520 nm. After the fluorescence intensity stabilized, scans were performed and the emission was recorded (both excitation and emission slit widths were set to 10 nm). A final concentration of 2 μM EsigPBP3 solution was prepared in 20 mM Tris-HCl buffer (pH 7.4), and the ligands were dissolved in chromatographically pure methanol as 1 mM stock solutions. […] The compound was added proportionally to a mixture with a final concentration of 2 µM EsigPBP3 protein and 2 µM 1-NPN. The ability of ligands to bind to the EsigPBP3 protein was monitored by the decrease in fluorescence intensity.

Row | Compound | IC50 [µM] | Ki (pH 7.4) [µM] | Kd (binding curve and Scatchard plot, 2 µM EsigPBP3, 1-NPN 2-24 µM, pH 7.4, read-out: dissociation constant (Kd) of EsigPBP3 for the reporter ligand 1-NPN) [µM]
1 | CCc1ccccc1CC [benzene, 1,2-diethyl-] | 7.19 | 4.83 | –
2 | CC12CCC(CC1)C(C)(C)O2 [eucalyptol] | > 24 | > 16.1 | –
3 | C=C1C2CCC(C2)C1(C)C (stereo not shown) [camphene] | 9.85 | 6.61 | –
4 | C=C1CCC2CC1C2(C)C (stereo not drawn) [(−)-β-pinene] | 4.77 | 3.2 | –
5 | CC1=CCC2CC1C2(C)C (stereo not drawn) [(−)-α-pinene] | 7.85 | 5.27 | –
6 | Cc1cc(C)cc(C)c1 [1,3,5-trimethyl-benzen] | > 24 | > 16.1 | –
7 | c1ccc(Nc2cccc3ccccc23)cc1 [1-NPN, reference compound] | – | – | 3.36
8 | CC(C)(O)c1ccccc1 [2-phenyl-2-propanol] | > 24 | > 16.1 | –
9 | CCc1ccc(C(C)=O)cc1 [4-ethylacetophenone] | 8.26 | 5.55 | –
10 | CC1=CC[C@H](C(C)C)C=C1 [α-phellandrene] | 5.32 | 3.57 | –

From paper PMC10931625, “EsigPBP3 Was the Important Pheromone-Binding Protein to Recognize Male Pheromones and Key Eucalyptus Volatiles” (International Journal of Molecular Sciences, 2024)
